Test results: patent US10124064B2, “Antimicrobial compositions of aminoglycosidic antibiotics and zinc ion chelators specifically formulated for enhanced inhibition of bacterial colonization and antibacterial efficacy” (University of Cincinnati, priority 2013, dated 2018)

System: S. aureus ATCC 6538
Assay: Porcine deep partial-thickness wound model inoculated with S. aureus; planktonic (flush) and biofilm (scrub) bacterial counts on day 2
Assay type: in vivo, Staphylococcus aureus
Protocol: Summarily, forty-four deep, partial-thickness wounds were created on the paravertebral area on two pigs. Four wounds each were randomly assigned to eleven treatment groups and inoculated with S. aureus ATCC 6538. Wounds were treated with approximately 200 mg of each treatment. On day 2, wounds were assessed using a flush and scrub technique to recover planktonic and biofilm-associated bacterial count, respectively.
Swine (2 animals) were used as the experimental animal due to the morphological, physiological, and biochemical similarities between swine skin and human skin.
• 44 deep partial thickness wounds measuring 10 mm×7 mm×0.5 mm were made in the peravertebral and thoracic areas of each animal • 4 wounds were randomly assigned to each of the 11 treatment groups Inoculation: • 25 μl of inoculum of 10^6 CFU/ml were inoculated into each wound and scrubbed lightly using a sterile Teflon spatula. Experimental Design: Pig 1: Treatment Groups
• Within 20 minutes of inoculation each wound was treated with the appropriate treatment. Each wound was treated with ≅200 mg of the appropriate treatment (days 0 and 1). • All wounds were covered with polyurethane film dressings Wound Recovery: • A sterile surgical steel cylinder (22 mm inside diameter) was placed over the wound area and 1 ml of all-purpose neutralizer solution was pipetted inside. • The site was gently flushed by pipetting in and out three times to remove the loosely attached bacteria (a), this aliquot represents the planktonic bacteria. • The same wound was then encircled using another sterile cylinder and 1 ml of all-purpose neutralizer solution was again pipetted into the cylinder and this time scrubbed with a sterile Teflon spatula for 30 seconds to remove the firmly attached bacteria (b), this aliquot was aspirated and represents biofilm bacteria.

[1] = swine wounds, 30000 μM (=15 mg/ml) DTPA used alone, topical, day 2

Substance	reduction of S. aureus counts compared to the untreated group (30000 μM DTPA alone)	bacterial counts (planktonic and biofilm) versus untreated control wounds (all concentrations of DTPA alone (30 to 30000 μM))	biofilm count [1]	planktonic bacterial count [1]	reduction in wound bioburden versus DTPA alone (0.1% Gentamicin positive control compared with all DTPA concentrations alone)
diethylenetriamine pentaacetic acid [DTPA]	99.96%	reduced bacterial counts	6.09±012 Log CFU/ml	5.19±0.29 Log CFU/ml	
gentamicin [Gentamicin 0.1%, reference compound]					substantially more reduction in wound bioburden than any of the DTPA concentrations alone
